Experimental data published in US20230132823A1, “BI-FUNCTIONAL COMPOUNDS AND METHODS FOR TARGETED UBIQUITINATION OF ANDROGEN RECEPTOR” (MONTELINO THERAPEUTICS, INC., priority 2020, published 2023).
Where a SMILES comes first, the peptide text is derived from it. [ ]: non-standard residue; d: D form. The star is where a group is joined. ξ: configuration not given here. X1 = O=C(COc1c(-c2csc(N3CCOCC3)n2)ccc(F)c1F)NCCCCCCN*; Dip = N[C@H](C(=O)O)C(c1ccccc1)c1ccccc1; Chg = N[C@H](C(=O)O)C1CCCCC1; NMeA = CN[C@@H](C)C(=O)O; ξP = O=C(O)C1CCCN1

Tests used:
[1] = test system: 22Rv1-Enz^R tumor xenografts; experiment: 22Rv1-Enz^R tumor xenograft in castrated nu/nu mice; assay type: in vivo; details: for tumor mass at 7 weeks: control approx. 1500 mm^3
Protocol: In Vivo Study. To explore the therapeutic potential of Test Compound, 22Rv1, 22Rv1-Enz^R, VCaP, and VCaP-Enz^R are injected into nu/nu immunodeficient mice. When the resulting tumors reached an average size of 3 mm in diameter, all animals are surgically castrated via bilateral orchiectomy and divided into four groups of five mice each. For anesthesia, 3% isoflurane gas inhalation is used. Tumor size was measured using calipers and tumor volume was calculated using the formula: tumor volume=length×width^2[…].
Mice are then treated daily with Test Compound with or without enzalutamide via the indicated route (intratumoral, intraperitoneal, or oral) for five to six weeks. At the end of the study, all animals are sacrificed and tumors are harvested and analyzed. Statistical significance is calculated using the Student's t-test for paired comparisons of experimental groups and, where appropriate, by Wilcoxon rank sum test, and by 2-way ANOVA. In vitro experiments are repeated a minimum of three times.
(§1) The in vivo effects of the Compound of Example 16 are assessed in mice using enzalutamide-resistant CaP xenografts. First, 22Rv1-Enz^R tumor xenografts are established in nu/nu mice. Upon CaP xenograft formation (average diameter of 3 mm), mice are randomized into controls or treatment. Control mice are treated with 100 μl vehicle containing 10 mg/ml enzalutamide (n=5). The treatment group is injected with 100 μl vehicle containing 2.5 mg/ml Compound of Example 16 and 10 mg/ml enzalutamide daily directly into tumors (n=5) and tumor volumes were followed. […] Tumors are harvested and analyzed at the end of the study period.

22Rv1-Enz^R cells = experiment: 22Rv1-Enz^R cell proliferation (cell count, Experimental Example 3); assay type: cell-based, human
Protocol: The human prostate cancer cell line, 22Rv1 has been reported to express a high level of AR-V7. Thus, 22Rv1 was seeded at 50,000 cells/well on a 24-well plate in quadruplicates and treated with test compound in concentrations ranging up to 20 μM for four days. Standard culture media was RPMI-1640 supplemented with 10% fetal bovine serum. The test compound initially was dissolved in DMSO at 50 mM. This stock solution was then diluted as needed for the indicated concentrations. At the end of the four-day period, cells were harvested using 1% trypsin and counted using an automated cell counter.
Cell Culture. Human CaP cell lines, LNCaP, 22Rv1, VCaP, PC3, and DU145 are obtained from the American Type Culture Collection (ATCC) and maintained in the standard culture media: RPMI-1640 supplemented with 10% fetal bovine serum (FBS). LNCaP, 22Rv1, and VCaP are androgen-responsive cell lines, while PC3 and DU145 are not. To establish SAT resistant CaP cell lines, LNCaP, 22Rv1, and VCaP are treated continuously with 10-50 μM abiraterone, apalutamide, darolutamide, or enzalutamide. After 3-6 months, stable cell lines are established and designated as LNCaP-Abi^R, LNCaP-Apa^R, LNCaP-Daro^R, LNCaP-Enz^R, VCaP-Abi^R, VCaP-Apa^R, VCaP-Daro^R, VCaP-Enz^R, 22Rv1-Abi^R, 22Rv1-Apa^R, 22Rv1-Daro^R and 22Rv1-Enz^R. Unless otherwise specified, the standard culture media for these SAT-resistant cell lines included 10 μM of their respective SAT. For the proteasome inhibitor study, the inhibitors MG132 and Epoxomicin are used. The E3 ligase inhibitors Heclin, Nutlin 3a, Thalidomide, and VH298 are used. Cell lines obtained from ATCC are confirmed by checking their morphology using optical microscopy, establishing baselines for cell proliferation, verifying species of origin using isoenzymology, and characterizing the cell's DNA fingerprint using short tandem repeat (STR) profiling. Mycoplasma contamination is also assessed using a PCR based detection system.

[2] = Body weight of tumor-bearing mice during treatment; assay type: in vivo
Protocol: as §1
Enzalutamide-resistant CaP tumor xenografts are established in twelve mice and three each are assigned to the following four groups: control IP (vehicle), control oral (vehicle), 8.3 mg/kg IP, and 8.3 mg/kg oral. Because these cells are resistant to enzalutamide, all animals are administered enzalutamide.

Row | SMILES | tumor volume at the end of 5 weeks ([1]; intratumoral daily, 100 μl of 2.5 mg/ml compound plus 10 mg/ml enzalutamide, control 800 mm^3) | 22Rv1-EnzR cell count, % of control (22Rv1-Enz^R cells; 1 μM, 6 days) | change in weight following treatment ([2]; 8.3 mg/kg systemic dosing, four weeks) | weight of the mice during treatment ([2]; intratumoral, 22Rv1-Enz^R xenograft, 5 weeks) | tumor mass at 7 weeks ([1]; 0.83 mg/kg) [mm^3] | tumor mass at 7 weeks ([1]; 8.3 mg/kg) [mm^3] | reduction of 22Rv1-Enz^R cell counts after pretreatment with MG-132 (22Rv1-Enz^R cells; 10 μM, 4 days, MG-132 (5 μM) pretreatment) | changes in animal body mass ([2]; 22Rv1-Enz^R tumors, 8.3 mg/kg and 0.83 mg/kg, 7 weeks)
1 | Cc1ncsc1-c1ccc([C@H](C)NC(=O)[C@@H]2C[C@@H](O)CN2C(=O)[C@@H](NC(=O)CCCCNC(=O)COc2c(-c3csc(N4CCOCC4)n3)ccc(F)c2F)C(C)(C)C)cc1 [Example 16, (2S,4R)-1-((S)-2-(5-(2-(2,3-difluoro-6-(2-morpholinothiazol-4-yl)phenoxy)acetamido)pentanamido)-3,3-dimethylbutanoyl)-4-hydroxy-N-((S)-1-(4-(4-methylthiazol-5-yl)phenyl)ethyl)pyrrolidine-2-carboxamide] | approximately 500 mm^3 | about 45 % of control | no significant change in weight | did not significantly change | – | – | – | –
2 | CN[C@@H](C)C(=O)N[C@H](C(=O)N1CCCC1C(=O)N[C@H](C(=O)NCCCCCCNC(=O)COc1c(-c2csc(N3CCOCC3)n2)ccc(F)c1F)C(c1ccccc1)c1ccccc1)C1CCCCC1 (stereo partly drawn) [Example 26, (S)-1-((S)-2-cyclohexyl-2-((S)-2-(methylamino)propanamido)acctyl)-N-((S)-1-((6-(2-(2,3-difluoro-6-(2-morpholinothiazol-4-yl)phenoxy)acetamido)hexyl)amino)-1-oxo-3,3-diphenylpropan-2-yl)pyrrolidine-2-carboxamide] (H-[NMeA][Chg][ξP][Dip]-X1) | – | – | – | – | < 600 | < 600 | substantially blocked | No significant changes
